Key:
[1] = Toxicology studies (acute and chronic); type: in vivo
Method: Pharmacological and toxicological studies were conducted with swainsonine hydrochloride. In particular, the following were investigated: (a) pharmacokinetics of the compound in rats and monkeys; (b) acute toxicity at significant multiples of the intended human dose; (c) the toxicity profile of the compound was compared to the literature profile for swainsonine free base; (d) potential for genotoxicity; (e) time course, dose-dependence, tissue sensitivity and reversibility of oligosaccharide accumulation in tissue; and (f) serum AST and relationship to liver histology.

[2] = test system: STAT3; test: STAT3 level in mice (Western blot); type: in vivo, DBA/2 mice; conditions: 20 μg/day ip, spleen
Method: To measure the level and activation of STATs, DBA/2 mice are treated for 6-9 days with 20 μg/mouse/day of swainsonine hydrochloride followed by a single intraperitoneal (i.p) injection of either sterile saline or 100 μg of poly IC (i.e., dsRNA, a surrogate for virus) in sterile saline. Two hours later an optimal time for STAT activation, spleens of the mice are homogenized and cytosolic and nuclear cell extracts are prepared. STAT protein levels are measured in the cytosolic and nuclear fractions by Western blot analysis. STAT phosphorylation (i.e. activation) is measured following immunoprecipitation using anti-phosphotyrosine antibodies.

[3] = Preformulation hygroscopicity study of bulk drug (water uptake, Karl Fischer); type: physicochemical; conditions: for water absorbed by Karl Fischer: after 48 hours of storage; for water absorbed: 75% RH
Method: Preformulation studies of swainsonine hydrochloride, bulk drug substance, and in combination with powder and semisolid fill gelatin capsules were conducted with respect to the following: hygroscopicity, pH, stability, and solubility. […] At 20% and 50% RH it absorbed 1.9% and 2.1% of water by Karl Fischer after 48 hours of storage. The moisture uptake diminishes when anhydrous powder excipients (e.g. lactose anhydrous and mannitol powder) are used to formulate the pharmaceutical active into a hard capsule.

[4] = molecular target: T1, lysosomal mannosidase (Homo sapiens, UniProt O00754); test: Inhibition of lysosomal mannosidase in vitro; type: biochemical; conditions: pH 5.0, 60 min at 37° C.
T1 sequence (O00754 50-1011): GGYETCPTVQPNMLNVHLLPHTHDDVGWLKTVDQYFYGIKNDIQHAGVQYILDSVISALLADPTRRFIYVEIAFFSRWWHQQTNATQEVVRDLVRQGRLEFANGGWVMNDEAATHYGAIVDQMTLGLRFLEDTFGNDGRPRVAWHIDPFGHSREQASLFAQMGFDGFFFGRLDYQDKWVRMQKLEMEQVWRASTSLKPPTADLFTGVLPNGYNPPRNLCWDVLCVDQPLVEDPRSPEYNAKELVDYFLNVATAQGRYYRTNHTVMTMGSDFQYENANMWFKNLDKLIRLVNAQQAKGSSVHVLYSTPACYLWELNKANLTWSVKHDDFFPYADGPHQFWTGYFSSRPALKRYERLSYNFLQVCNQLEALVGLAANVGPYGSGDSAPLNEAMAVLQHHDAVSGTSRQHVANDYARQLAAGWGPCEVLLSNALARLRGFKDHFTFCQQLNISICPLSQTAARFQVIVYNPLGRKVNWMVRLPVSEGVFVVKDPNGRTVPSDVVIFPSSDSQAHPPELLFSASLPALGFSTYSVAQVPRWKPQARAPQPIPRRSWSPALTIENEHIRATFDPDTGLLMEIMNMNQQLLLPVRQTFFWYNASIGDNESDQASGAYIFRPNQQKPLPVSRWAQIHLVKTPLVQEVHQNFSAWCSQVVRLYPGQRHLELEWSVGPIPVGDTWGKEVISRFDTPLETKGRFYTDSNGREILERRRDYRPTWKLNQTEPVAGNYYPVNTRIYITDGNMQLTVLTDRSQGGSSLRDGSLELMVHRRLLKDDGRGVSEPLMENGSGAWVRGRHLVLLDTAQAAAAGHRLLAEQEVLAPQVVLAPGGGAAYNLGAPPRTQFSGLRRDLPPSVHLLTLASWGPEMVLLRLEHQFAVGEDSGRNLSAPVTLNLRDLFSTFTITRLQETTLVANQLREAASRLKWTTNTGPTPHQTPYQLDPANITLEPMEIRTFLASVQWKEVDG
Method: The effects of the compounds of the invention on lysosomal mannosidase were measured by adding (10 μl) of the compounds into 96 well Elisa plates followed by the addition of 200 mM sodium acetate pH 5.0 and 25 μl of 10 mM p-nitrophenyl α-D-mannospyranoside. 15 μl of lysosomal mannosidase ( about 8 mM/mL) was added to each well and the plates were incubated for 60 min at 37° C. The reaction was stopped by the addition of 50 μl of 0.5M sodium carbonate and formation of p-nitrophenol was measured with a plate set at 405.

[5] = test system: SP1.A3a mouse mammary adenocarcinoma; test: SP1.A3a tumor growth in mice, oral administration in drinking water; type: in vivo, CBA/J mice
Method: The experiment was repeated using swainsonine hydrochloride administered in drinking water. SP1.A3a mouse mammary adenocarcinoma were maintained in exponential growth in RPMI 1640 medium containing 10% FBS. The cells were harvested and re-suspended at 3×10^5/ml in PBS and 0.1 ml containing 3×10^4 cells injected S.C. into the right flank of 7 week old female CBA/J mice (Jackson Laboratories) (n=25). The mice were subsequently supplied with drinking water alone (n=13) or drinking water containing 10 μg/ml swainsonine hydrochloride (n=12) (equivalent to a dose of 2 mg/kg/day).
Once a palpable tumor was evident, tumor size was measured twice a week using vernier callipers. At the end of the treatment period the tumors were excised and weighed.

SMILES: Cl.O[C@H]1[C@H]2[C@H](O)CCCN2C[C@@H]1O [swainsonine hydrochloride, (−)-(1S,2S,8R,8aR)-1,2,8-trihydroxyoctahydro-indolizidine hydrochloride salt]
- dose at which acute toxicity occurs ([1]; acute toxicity): 13,000 times the intended human dose
- sites of oligomannoside accumulation in lysosomes ([1]; chronic studies, doses proposed for humans): thyroid and also possibly the kidney could be the sites of reversible accumulation
- STAT3 cytosolic protein levels [2]: remained unchanged
- water absorbed by Karl Fischer ([3]; 20% RH): 1.9%
- water absorbed by Karl Fischer ([3]; 50% RH): 2.1%
- water absorbed ([3]; first 2 hours): approximately 8 % (w/w)
- water absorbed ([3]; first 8 hours): ~24 % (w/w)
- hygroscopicity ([3]; bulk drug): highly hygroscopic
- IC50 [4]: 45 ± 10 nM
- tumor growth versus control mice ([5]; 10 μg/ml in drinking water (2 mg/kg/day), FIG. 9): slower growing tumors
- mean tumor weight ([5]; 10 μg/ml in drinking water, at 31 days, untreated 3.33 g): 1.79 g

Source: patent publication US6395745B1, “Alkaloid halide salts of swainsonine and methods of use” (priority 1997, dated 2002)
